Results reported in patent US11708562B2, “Differentiation of human embryonic stem cells” (Janssen Biotech, Inc., priority 2006, dated 2023).

Columns and labels:
[1] = system: human embryonic stem cell line H1 at passage 55; test: Definitive endoderm on human serum coated plates (real-time PCR); format: cell-based
Method: Cultures of the human embryonic stem cell line H1 at passage 55 were grown and differentiated on human serum (Sigma, # H1388, MO) coated plates. 0.5 ml of human serum was added to each well of 6 well tissue culture treated dish, incubated for 1 hr at room temperature, and aspirated before adding human embryonic stem cells. […] These findings parallel our findings for human embryonic stem cells cultured on […]™ or human fibronectin coated plates.

[2] = system: H9P46-P48 embryonic stem cells; test: Definitive endoderm on […]: effect of GSK-3B inhibitor (FACS CXCR4, PCR); format: cell-based, human; conditions: 20 ng/ml of Wnt-3a or 100-1000 nM GSK-3B inhibitor
Method: In order to confirm that the effect of Wnt-3a was through the Wnt pathway, a GSK-3 inhibitor was used to activate the downstream targets of Wnt, such as beta catenin. […] FIG. 29A depicts the expression of CXCR4 by FACS at day 5 in the absence of Wnt-3a or GSK-3B inhibitor, b)+20 ng/ml Wnt-3a, c)+1000 nM GSK-3B inhibitor IX, d)+500 nM GSK-3B inhibitor IX, e)+100 nM GSK-3B inhibitor IX, f)+10 nM GSK-3B inhibitor IX, g)+100 nM GSK-3B inhibitor IX for days 1-2, and h)+10 nM GSK-3B inhibitor IX for days 1-2.

[3] = system: H9P53 embryonic stem cells; test: Definitive endoderm on […]: combination of Wnt-3a, GSK-3B inhibitor, BMP-4; format: cell-based, human
From the text: Results are expressed as fold increase over untreated cells. […] Results are expressed as fold increase over untreated cells.

[4] = system: human embryonic stem cell line H9; test: Formation of pancreatic endocrine cells: γ-secretase inhibitor L-685,458 (PCR); format: cell-based; conditions: L-685,458 at 10 μM for three days
Method: After this time interval, the cells were then treated for six days with combinations of retinoic acid and FGF as outlined in Example 2, then the culture medium was removed and replaced with medium comprising DMEM/F12 with 2% FBS, containing the γ-secretase inhibitors L-685,458 at 10 μM for three days.

[5] = system: human embryonic stem cell line H9; test: Formation of pancreatic endoderm: retinoic acid and bFGF after activin A (PCR, immunocytochemistry); format: cell-based
From the text: Final data were expressed relative to a calibrator sample.

[6] = system: H7P44 and H9P46 embryonic stem cells; test: Definitive endoderm on […]: role of Wnt ligands (FACS CXCR4, real-time PCR); format: cell-based, human; conditions: H7 and H9; low serum+AA+/-Wnt ligands
Method: In some of the cultures 20 ng/ml Wnt-3a (Catalog #1324-WN-002, R&D Systems, MN), 20 ng/ml Wnt-5a (Catalog #654-WN-010, R&D Systems, MN), 25 ng/ml Wnt-7a (Catalog #3008-WN-025, R&D Systems, MN), or 25 ng/ml Wnt-5b (Catalog #3006-WN-025, R&D Systems, MN) was added throughout the five day treatment. FIGS. 24A and 24B depicts phase contrast images of H9P46 definitive endoderm culture in the presence of high concentration of (a) AA or (b) AA+20 ng/ml Wnt-3a. FIGS. 25A, 25B, 25C and 25D depicts the expression of CXCR4 by FACS at day 5 for H7P44, and H9P46 lines cultured on […]™ (1:30 dilution) and exposed to the DE protocol+Wnt-3a (FIGS. 25B and 25D) and -Wnt-3a (FIGS. 25A and C).

[7] = system: human embryonic stem cell line H9; test: Derivation of hepatocytes from human embryonic stem cells (PCR of AFP, albumin); format: cell-based; conditions: five days after 7 days activin A
From the text: After this time, the cells were harvested, and samples of mRNA were collected for analysis.

O=C1Nc2cc(Br)ccc2/C1=C1/Nc2ccccc2/C1=N\O [GSK-3B inhibitor IX, reference compound]
expression of definitive endoderm markers compared to activin A only [1]: Robust expression | number of CXCR4 positive cells (FACS) [2]: significantly increased | definitive endoderm markers, combination versus each agent by itself ([3]; Wnt-3A plus GSK inhibitor in the presence of activin A): do not lead to significant upregulation

CC(C)C[C@H](NC(=O)[C@H](Cc1ccccc1)C[C@@H](O)[C@H](Cc1ccccc1)NC(=O)OC(C)(C)C)C(=O)N[C@@H](Cc1ccccc1)C(N)=O [L-685,458]
expression of Ngn3 relative to activin A alone or retinoic acid with FGFs [4]: approximately 50 fold

CC1=C(/C=C/C(C)=C/C=C/C(C)=C/C(=O)O)C(C)(C)CCC1 [retinoic acid, all-trans retinoic acid]
expression of GLUT-2 and PTF1a ([5]; 1 μM retinoic acid and 50 ng/ml bFGF, absence of activin A): largest increase | Pdx1 expression relative to activin A treatment alone for 5 days ([5]; three days activin A, then 5 days retinoic acid and 50 ng/ml bFGF in the absence of activin A): approximately 3500 fold

B1: Wnt-7a: Wnt ligand, Catalog #3008-WN-025, R&D Systems (protein, UniProt O00755 32-349, looked up)
Protein Wnt-7a: LGASIICNKIPGLAPRQRAICQSRPDAIIVIGEGSQMGLDECQFQFRNGRWNCSALGERTVFGKELKVGSREAAFTYAIIAAGVAHAITAACTQGNLSDCGCDKEKQGQYHRDEGWKWGGCSADIRYGIGFAKVFVDAREIKQNARTLMNLHNNEAGRKILEENMKLECKCHGVSGSCTTKTCWTTLPQFRELGYVLKDKYNEAVHVEPVRASRNKRPTFLKIKKPLSYRKPMDTDLVYIEKSPNYCEEDPVTGSVGTQGRACNKTAPQASGCDLMCCGRGYNTHQYARVWQCNCKFHWCCYVKCNTCSERTEMYTCK
expression of definitive endoderm markers (real-time PCR) [6]: minimal impact

B2: Wnt-5a: Wnt ligand, Catalog #654-WN-010, R&D Systems (protein, UniProt P22725 62-380, looked up)
Protein Wnt-5a: IIGAQPLCSQLAGLSQGQKKLCHLYQDHMQYIGEGAKTGIKECQYQFRHRRWNCSTVDNTSVFGRVMQIGSRETAFTYAVSAAGVVNAMSRACREGELSTCGCSRAARPKDLPRDWLWGGCGDNIDYGYRFAKEFVDARERERIHAKGSYESARILMNLHNNEAGRRTVYNLADVACKCHGVSGSCSLKTCWLQLADFRKVGDALKEKYDSAAAMRLNSRGKLVQVNSRFNSPTTQDLVYIDPSPDYCVRNESTGSLGTQGRLCNKTSEGMDGCELMCCGRGYDQFKTVQTERCHCKFHWCCYVKCKKCTEIVDQFVCK
expression of definitive endoderm markers (real-time PCR) [6]: minimal impact

B3: BMP-4: Catalog #314-BP-010, R&D Systems (protein, UniProt P12644 293-408, looked up)
Bone morphogenetic protein 4: SPKHHSQRARKKNKNCRRHSLYVDFSDVGWNDWIVAPPGYQAFYCHGDCPFPLADHLNSTNHAIVQTLVNSVNSSIPKACCVPTELSAISMLYLDEYDKVVLKNYQEMVVEGCGCR
effect of addition of BMP-4 to the DE protocol ([3]; 25 ng/ml BMP-4): induce formation of mesoderm marker BRY

B4: FGF-4: member of the fibroblast growth factor family (protein, UniProt P08620 31-206, looked up)
Fibroblast growth factor 4: APTAPNGTLEAELERRWESLVALSLARLPVAAQPKEAAVQSGAGDYLLGIKRLRRLYCNVGIGFHLQALPDGRIGGAHADTRDSLLELSPVERGVVSIFGVASRFFVAMSSKGKLYGSPFFTDECTFKEILLPNNYNAYESYKYPGMFIALSKNGKTKKGNRVSPTMKVTHFLPRL
expression of α-fetoprotein (AFP) and albumin [7]: further increased

B5: Wnt-5b: Wnt ligand, Catalog #3006-WN-025, R&D Systems (protein, UniProt P22726 18-359, looked up)
Protein Wnt-5b: QLLTDANSWWSLALNPVQRPEMFIIGAQPVCSQLPGLSPGQRKLCQLYQEHMSYIGEGAKTGIRECQHQFRQRRWNCSTVDNTSVFGRVMQIGSRETAFTYAVSAAGVVNAISRACREGELSTCGCSRAARPKDLPRDWLWGGCGDNVEYGYRFAKEFVDAREREKNFAKGSEEQGRALMNLQNNEAGRRAVYKMADVACKCHGVSGSCSLKTCWLQLAEFRKVGDRLKEKYDSAAAMRITRQGKLELANSRFNQPTPEDLVYVDPSPDYCLRNETTGSLGTQGRLCNKTSEGMDGCELMCCGRGYDRFKSVQVERCHCRFHWCCFVRCKKCTEVVDQYVCK
expression of definitive endoderm markers (real-time PCR) [6]: minimal impact
